Legend:
Type in all cases: cell-based
H358 cells = assay: H358 proliferation assay (CellTiter-Glo); details: Homo sapiens, NCI-H358, 120 h, 120 h incubation, read-out: IC50 (nM), inhibitory activity against H358 cell proliferation
Method: The inhibitory activity of the compounds of the present disclosure against H358 cell proliferation was measured. Below is a brief description of the experimental method: H358 cells (ATCC, CRL-5807) were cultured in RPMI1640 medium (Hyclone, SH30809.01) containing 10% fetal bovine serum (Corning, 35-076-CV) (i.e., complete medium). On the first day of the experiment, H358 cells were seeded into a 96-well plate at a density of 1200 cells/well using complete medium, with 100 μL of cell suspension per well, and the plate was incubated overnight in a 37° C., 5% CO2 cell incubator. On the second day, the test compounds, prepared in complete medium and serially diluted, were added at 10 μL/well. The final concentrations of the compounds were 9 concentration points obtained by a 5-fold serial dilution from 10 μM. A blank control containing 0.5% DMSO was set up. The plate was incubated for 120 h in a 37° C., 5% CO2 cell incubator. On the seventh day, the 96-well cell plate was removed from the incubator, and CellTiter-Glo® Luminescent Cell Viability Assay (Promega, G7573) was added at 50 μL/well. After 10 min of room temperature incubation, luminescence signals were measured using a multifunctional microplate reader (PerkinElmer, EnVision® 2105). The IC50 values for the inhibitory activity of the compounds were calculated using Graphpad Prism software.

[1] = tested on: ERK phosphorylation in H358 cells; assay: H358 cell ERK phosphorylation inhibition assay (HTRF pERK/total ERK); details: Homo sapiens, NCI-H358, 3 h, 3 h incubation, ratio of pERK/total ERK, read-out: IC50 (nM), inhibitory effects on ERK phosphorylation in H358 cells
Method: The inhibitory effects of the compounds of the present disclosure on ERK phosphorylation in H358 cells were measured. Below is a brief description of the experimental method: H358 cells (ATCC, CRL-5807) were cultured in RPMI1640 medium (Hyclone, SH30809.01) containing 10% fetal bovine serum (Corning, 35-076-CV) (i.e., complete medium). On the first day of the experiment, H358 cells were seeded into a 96-well plate at a density of 25,000 cells/well using complete medium, with 190 μL of cell suspension per well, and the plate was incubated overnight in a 37° C., 5% CO2 cell incubator. On the second day, the test compounds, prepared in complete medium and serially diluted, were added at 10 μL/well. The final concentrations of the compounds were 9 concentration points obtained by a 6-fold serial dilution from 10 μM. A blank control containing 0.5% DMSO was set up. The plate was incubated for 3 h in a 37° C., 5% CO2 cell incubator. After 3 h, the 96-well cell culture plate was removed from the incubator, and the culture medium was pipetted off. PBS (Shanghai BasalMedia Technologies Co., Ltd., B320) was added at 200 μL/well for a single wash. PBS was pipetted off, and lysis buffer (Cisbio, 64KL1FDF) containing a blocking agent (Cisbio, 64KB1AAC) was added at 50 μL/well. The plate was incubated on a shaker for 30 min at room temperature to lyse the cells. After lysis, the lysates were well mixed by pipetting, and 16 μL of lysate was transferred from each well to two HTRF 96-well assay plates (Cisbio, 66PL96100). Subsequently, 4 μL of a premixed phospho-ERK1/2 antibody solution (Cisbio, 64AERPEG) or 4 μL of a premixed total-ERK1/2 antibody solution (Cisbio, 64NRKPEG) was added to each of the plates. The plates were sealed with a plate sealer film, centrifuged for 1 min in a microplate centrifuge, and incubated overnight at room temperature in the dark. On the third day, fluorescence values at an excitation wavelength of 337 nm and emission wavelengths of 665 nm and 620 nm were measured using a PHERAstar multifunctional microplate reader (BMG Labtech, PHERAstar FS). The IC50 values for the inhibitory activity of the compounds were calculated using Graphpad Prism software, based on the compound concentration and the ratio of pERK/total ERK.

MIA PaCa-2 cells = assay: MIA PaCa-2 cell proliferation assay (CellTiter-Glo); details: Homo sapiens, MIA PaCa-2, 72 h, 72 h incubation, read-out: IC50 (nM), inhibitory activity against MIA PaCa-2 cell proliferation
Method: The inhibitory activity of the compounds of the present disclosure against MIA PaCa-2 cell proliferation was measured. Below is a brief description of the experimental method:
MIA PaCa-2 cells (ATCC, CRL-1420) were cultured in DMEM/HIGH GLUCOSE medium (GE, SH30243.01) containing 10% fetal bovine serum (Corning, 35-076-CV) and 2.5% horse serum (Beyotime Biological Tech., C0262) (i.e., complete medium). On the first day of the experiment, MIA PaCa-2 cells were seeded into a 96-well plate at a density of 500 cells/well using complete medium, with 90 µL of cell suspension per well, and the plate was incubated overnight in a 37° C., 5% CO2 cell incubator. On the second day, the test compounds, prepared in complete medium and serially diluted, were added at 10 μL/well. The final concentrations of the compounds were 9 concentration points obtained by a 5-fold serial dilution from 10 μM. A blank control containing 0.5% DMSO was set up. The plate was incubated for 72 h in a 37° C., 5% CO2 cell incubator. On the fifth day, the 96-well cell plate was removed from the incubator, and CellTiter-Glo® Luminescent Cell Viability Assay (Promega, G7573) was added at 50 μL/well. After 10 min of room temperature incubation, luminescence signals were measured using a multifunctional microplate reader (PerkinElmer, EnVision2015). The IC50 values for the inhibitory activity of the compounds were calculated using Graphpad Prism software.

| Compound | IC50 (H358 cells) [nM] | IC50 [1] [nM] | IC50 (MIA PaCa-2 cells) [nM] |
| --- | --- | --- | --- |
| C=CC(=O)N1CCN2C(=O)c3cc(F)c(-c4ccc(F)c5sc(N)c(C#N)c45)c4ccn(c34)CC[C@H]2C1 [Example 2, 4-((S)-10-Acryloyl-2-fluoro-14-oxo-8,8a,9,10,11,12-hexahydro-7H,14H-pyrazino[1′,2′:5,6][1,5]diazocino[3,2,1-hi]indol-3-yl)-2-amino-7-fluorobenzo[b]thiophene-3-carbonitrile] | 10.5 | 0.28 | 5.87 |
| C=CC(=O)N1CCN2C(=O)c3cc(F)c(-c4ccc(F)c5sc(N)c(C#N)c45)c4cc(C)n(c34)CC[C@H]2C1 [Example 4, 4-((S)-10-Acryloyl-2-fluoro-5-methyl-14-oxo-8,8a,9,10,11,12-hexahydro-7H,14H-pyrazino[1′,2′:5,6][1,5]diazocino[3,2,1-hi]indol-3-yl)-2-amino-7-fluorobenzo[b]thiophene-3-carbonitrile] | 13.4 | 1.16 | 11.2 |
| C=CC(=O)N1C[C@@H]2CCn3ncc4c(-c5ccc(F)c6sc(N)c(C#N)c56)c(F)cc(c43)C(=O)N2C[C@H]1C [Example 10, 4-((8aS,11R)-10-Acryloyl-2-fluoro-11-methyl-14-oxo-8,8a,9,10,11,12-hexahydro-7H,14H-pyrazino[1′,2′:5,6][1,5]diazocino[3,2,1-hi]indazol-3-yl)-2-amino-7-fluorobenzo[b]thiophene-3-carbonitrile] | 0.8 | 0.15 | 0.94 |

From patent US20250122211A1, “NITROGEN-CONTAINING TETRACYCLIC COMPOUND, PREPARATION METHOD THEREFOR, AND MEDICAL USE THEREOF” (Jiangsu Hengrui Pharmaceuticals Co., Ltd., priority 2021, published 2025)
